The text below walks through data of patent US20100248267A1, “METHOD FOR MEASUREMENT OF CONCENTRATION OF ANTIGEN” (JAPAN SCIENCE AND TECHNOLOGY AGENCY, priority 2007, published 2010).

In data set [1] the test system is antibody-enzyme fusion protein (VH-cpBLA-VL(219)). In words: Activity assay of VH-cpBLA-VL(219) using Fluorocillin. In kind it is biochemical. Conditions: triplicate; for change in signal intensity (fluorescence): antigen final concentration 1 μg/ml, compared with PBS. Here is the method: Activity of the above prepared antibody-enzyme fusion protein (VH-cpBLA-VL(219)) was assayed using Fluorocillin. The antigen peptide BGP-C7 at a final concentration of 0-2000 ng/ml and the antibody-enzyme fusion protein at a final concentration of 300 nM were mixed in 50 μl of PBS, and the mixture was dispensed into black microplate wells. After adding 50 μL of 2 μM Fluorocillin in PBS, the mixture was incubated at 28° C. for 60 minutes, and read for its fluorescence intensity (intensity at 535 nm with excitation light irradiation at 485 nm). Also, control experiments were performed without antibody-enzyme fusion protein, and the fluorescence intensity of these wells was used for background subtraction. […] For information, the measurement of the present experiment was performed in triplicate. Black circles in FIG. 14 indicate the average value of the measured values and the error bars indicate 1SD.
Further, similar experiments were performed using a substance other than BGP-C7 (BGP-C8, BGP-C10, ICP, TCP with each final concentration of 1 μg/ml) as antigens.

The test system of data set [2] is VH-split•cpBLA-VL/pET26/C43 strain. Kind of data set: Growth assay using VH-split•cpBLA-VL expressing strain. Type of data set: cell-based, E. coli. Here is the method:
(§1) By applying the assay of the above-mentioned Example 6, VH-split•cpBLA-VL/pET26 was used instead of VH-cpBLA-VL/pET26, and the E. coli C43 (DE3) strain (Lucigen Corporation) suitable for overexpression of a highly toxic protein was used instead of the BL21 (DE3, pLysS) strain, to investigate the expression in the strains. To be specific, 0.5 μg of VH-split•cpBLA-VL/pET26 was used for transformation for the C43 (DE3) strain, and the transformed cells were cultured on a LB agar medium plate containing 50 μg/ml of kanamycin at 30° C. overnight, and the VH-split•cpBLA-VL expressing strain (VH-split•cpBLA-VL/pET26/C43 strain) was prepared. After overnight culture, the colonies generated on the above-mentioned LB agar medium plate were picked with a toothpick, inoculated and cultured in a 4 ml of the LB liquid medium containing 50 […] (LBK) at 27° C. overnight. 10 μl of this pre-cultured medium was inoculated in 1 ml of the LBK liquid medium containing 1 mM of IPTG, 0 or 10 μg/ml of ampicillin, 10 ng/ml of ICP or TCP. After the cells were cultured at 27° C. for 45 hours, the turbidity was measured using Mini photo 518R at 660 nm.

Data set [3] deals with antibody-enzyme fusion protein (VH-cpBLA-VL). Kind of data set: β-lactamase activity change of VH-cpBLA-VL with chromogenic substrate Nitrocefin. Type of data set: biochemical. Conditions: 5 μl of 10 μg/ml antigen, 1 mM Nitrocefin, room temperature 18 hours. Here is the method: First, 5 μl of the concentrated VH-cpBLA-VL protein solution prepared in Example 9, 5 μl of 10 μg/ml ICP or TCP, and 90 μl of PBS containing 1 mM of Nitrocefin were mixed, and left in a dark place at a room temperature for 18 hours. Then, the absorbance at 490 nm of the reaction solution was measured to investigate the change in the β-lactamase activity. Further, absorbance at 490 nm was also measured when PBS was used instead of ICP or TCP (the item “PBS” in FIG. 12), or when VH-cpBLA-VL protein solution was not added (the item “Nitrocefin” in FIG. 12). […] In other words, the ICP-dependent increase of β-lactamase activity was observed.

For data set [4], the system named is VH-cpBLA-VL/pET26/BL21 strain. In words: Growth assay using VH-cpBLA-VL expressing strain. Type of data set: cell-based, E. coli. Conditions: 100 μg/ml ampicillin LB medium. Here is the method: Also, for the growth assay, ICP which is the target antigen of this antibody-enzyme fusion protein, and the thiacloprid (TCP) which is an analog of ICP with a lower cross-reactivity than ICP were used. In further detail, the assay was performed by the following procedures.
First, the strain expressing VH-cpBLA-VL (antibody-enzyme fusion protein) was prepared.
0.5 μg of VH-cpBLA-VL/pET26 was used for transformation of 100 μl of the BL21 (DE3, pLysS) strain (F-, ompT, hsdSB, (rB-, mB-), dcm, gal, λ(DE3), pLysS, Cmr), and the transformed cells were cultured on an LB agar medium plate containing 50 μg/ml of kanamycin and 37 μg/ml of chloramphenicol at 30° C. overnight, to prepare an antibody-enzyme fusion protein expressing strain (VH-cpBLA-VL/pET26/BL21 strain). After the overnight culture, colonies generated on the above-mentioned LB agar medium plate were picked with a toothpick, inoculated and cultured in a 4 ml of the LB liquid culture medium plate containing 50 μg/ml of kanamycin and 37 μg/ml of chloramphenicol at 27° C. overnight. 4 μl of this pre-cultured medium was inoculated and cultured in 4 ml of the LB liquid culture medium containing 50 μg/ml of kanamycin and 37 μg/ml of chloramphenicol, 1 mM of IPTG, 0 or 100 μg/ml ampicillin, 0 to 10 ng/ml of ICP or TCP at 27° C. for 33 hours, with measuring the time course of turbidity change using Mini photo 518R at 660 nm.

Data set [5] concerns antibody-enzyme fusion protein (VH-cpBLA-VL). Kind of data set: β-lactamase activity change of VH-cpBLA-VL with fluorogenic substrate Fluorocillin. Type of data set: biochemical. Conditions: 5 μl of 10 μg/ml antigen, 10 μM Fluorocillin, room temperature 30 minutes. As for the experimental part: Next, a similar experiment was performed using a fluorogenic substrate Fluorocillin instead of the chromogenic substrate Nitrocefin. Specifically, 5 μl of concentrated VH-cpBLA-VL protein solution prepared in Example 9, and 5 of 10 μg/ml ICP or TCP were mixed, and incubated at 4° C. for 30 minutes. Then, 90 μl of PBS containing 10 μM Fluorocillin was added, and incubated at a room temperature for 30 minutes. The fluorescence at 535 nm with 435 nm excitation was measured using a microplate reader Genios Pro (Tecan Japan Co., Ltd.). […] In other words, the increase of the ICP-dependent β-lactamase activity was observed.

Data set [6] deals with wild-type BL21 (DE3, pLysS) strain. In words: Toxicity test of ICP in E. coli (growth curve, turbidity at 660 nm). Type of data set: cell-based. Conditions: 100 ng/ml ICP, LB medium, 27° C. overnight, versus medium without ICP. Here is the method:
The BL21 (DE3, pLysS) strain was cultured at 30° C. overnight on an LB agar medium plate containing 37 μg/ml of chloramphenicol. The generated colonies were picked with a toothpick, inoculated and cultured in a 4 ml of the LB liquid culture medium containing 37 μg/ml of chloramphenicol at 27° C. overnight. 40 μl of this pre-cultured medium was inoculated and cultured in a 4 ml of the liquid culture medium containing 37 μg/ml of chloramphenicol and 100 ng/ml of ICP at 27° C. overnight, with measuring the time course of turbidity change using Mini photo 518R (TAITEC CORPORATION) at 660 nm.

For data set [7], the system named is cpBLA/pET26/BL21 strain or cpBLA/pET26/C43 strain. Kind of data set: Growth assay using cpBLA expressing strain. In kind it is cell-based, E. coli. Here is the method: as §1
A short description of data set [8]: ELISA for antigen binding ability of the antibody-enzyme fusion protein. Conditions: ICP-BSA versus BSA coated plates. Here is the method: The following ELISA assay was performed to confirm whether the antibody-enzyme fusion protein (VH-cpBLA-VL) actually has a binding activity to the antigen (ICP).
PBS solution containing 10 μg/ml of ICP-BSA or BSA was dispensed into Falcon 3912 microplates by 100 μl each, and left at 4° C. for 16 hours. After discarding the solution from the microplates, 200 μl of PBS including 25% of Immunoblock was added and left at a room temperature for 2 hours for blocking. Next, after washing the microplates with PBS-T, […] of the purified antibody-enzyme fusion protein (VH-cpBLA-VL) prepared in the above-mentioned Example 9 and 100 μl of PBS containing 5% Immunoblock were added, and left at a room temperature for 90 minutes. In order to detect the antibody-enzyme fusion protein (VH-cpBLA-VL) bound to the solid-phase by the above preparation, the microplates were washed with PBS-T, and added with HRP labeled Penta-His (QIAGEN K.K., Tokyo) diluted in 1/2000 in PBS containing 5% Immunoblock. […] After incubation for 5 minutes in a dark place, the reaction was stopped by adding 50 μl of 3.2 N of H2SO4, and the absorbance was measured with a platereader (450 nm).
Also, the above-mentioned ELISA was applied for VH-split•cpBLA-VL(VH-BLAc and BLAn-VL) or cpBLA instead of using VH-cpBLA-VL, and the absorbance was measured similarly. […]
Background: An ELISA detects its analyte on a solid surface through an enzyme-linked reagent.

Setting [9] is: less than 100 μg/ml ICP or TCP added.

Turning to “BGP-C10: BGP peptide detectable by open sandwich ELISA with KTM219 (EAYRRFYGPV)”, the “change in signal intensity (fluorescence)” value (shortened to “change in signal intensity”) in data set [1] is “increase of the signal intensity”.
For “BGP-C7: antigen peptide (osteocalcin C-terminal peptide) recognised by antibody KTM219 (RRFYGPV)”, in data set [1] (antigen 0-2000 ng/ml, 300 nM fusion protein, dose-dependent), the “change in fluorescence intensity (535 nm)” value is “significant increase of the fluorescence intensity”.
Turning to “BGP-C8: BGP peptide detectable by open sandwich ELISA with KTM219 (YRRFYGPV)”, in data set [1], the “change in signal intensity” value was “increase of the signal intensity”.
For the molecule `N#C/N=C1\SCCN1Cc1ccc(Cl)nc1` [TCP, thiacloprid], the “growth of expressing strain (turbidity at 660 nm)” value in data set [2] (setting [9]) is on record as “no significant growth”; in data set [4] (antigen at 10 ng/ml, similar to 1 ng/ml ICP) it was “significant growth”. For the same molecule, in data set [3], the “change in β-lactamase activity (absorbance at 490 nm)” value is listed as “slight significant signal increase”. The “time after initiation of measurement from which growth was observed” value in data set [4] (TCP, later than ICP of the same concentration) is listed as “about 30 hours”. Also, the “change in signal intensity” value in data set [1] was “only the same signal intensity as PBS”.
Take `O=[N+]([O-])NC1=NCCN1Cc1ccc(Cl)nc1` [ICP, imidacloprid]: in data set [5], the “change in β-lactamase activity (fluorescence at 535 nm)” value was “significant signal increase”. Moreover, the “growth of expressing strain (turbidity at 660 nm)” value in data set [2] (10 μg/ml ampicillin, 10 ng/ml antigen, 27° C., 45 hours) is listed as “ICP dependent-growth”; in data set [2] (setting [9]), “no significant growth”; in data set [4] (antigen at 1 ng/ml) it was “dose-dependent growth”; in data set [4] (antigen at 5 to 10 ng/ml), “dose-dependent growth”. The “toxicity or growth-promoting activity in E. coli” value in data set [6] is “no toxicity or growth-promoting activity”. Also, the “change in β-lactamase activity (absorbance at 490 nm)” value in data set [3] was “significant signal increase”. The “time after initiation of measurement from which growth was observed” value in data set [4] (ICP at 1 ng/ml) is recorded as “about 30 hours”. For the same molecule, the “change in signal intensity” value in data set [1] is recorded as “only the same signal intensity as PBS”.

B1: cpBLA: circularly permutated β-lactamase without antibody domains (SEQ ID NO: 13), control (protein, listed as Escherichia coli)
chain: NEAIPNDERDTTMPAAMATTLRKLLTGELLTLASRQQLIDWMEADKVAGPLLRSALPAGWFIADKSGAGERGSRGIIAALGPDGKPSRIVVIYTTGSQATMDERNRQIAEIGASLIKHWDKSHPETLVKVKDAEDQLGARVGYIELDLNSGKILESFRPEERFPMMSTFKVLLCGAVLSRIDAGQEQLGRRIHYSQNDLVEYSPVTEKHLTDGMTVRELCSAAITMSDNTAANLLLTTIGGPKELTAFLHNMGDHVTRLDRWEPELNEA
Turning to B1, the “growth of expressing strain” value in data set [7] (ampicillin added) is on record as “growth was not observed in any of the samples”; in data set [7] (ampicillin not added), “growth was observed regardless of the presence or absence of the antigen”. Besides, in data set [7] (any of the cpBLA expressing strains), the antigen-dependent growth entry is “antigen-dependent growth was not observed”. In addition, the “ELISA signal regardless of the presence or absence of ICP (antigen)” value in data set [8] is on record as “similarly low signal”.
